Measurements reported in patent publication US7473527B2, “Compounds promoting delivery of genes” (The UAB Research Foundation, priority 2002, dated 2009).

How the values were obtained:
Type in all cases: cell-based
HT29 cells [1] = test: Adenovirus luciferase gene transfer into confluent HT29 cells; conditions: for activation of adenovirus gene transfer (luciferase): 100 micromolar, procedure of Example 1 (MOI 50, assay 48 hours later), screen of 1032 NSC library compounds; for activation of adenovirus gene transfer (luciferase activity): MOI 1, 3 or 10, compound 30 nM, 300 nM, 10 uM, 30 uM or 100 uM, 48 hours
Description: HT29 cells are grown in 96-well plates. The cells are seeded at near confluency, about 300,000 cells per well, and infected with adenovirus 3-4 days later. […] For screening purposes, cells are grown on plastic. […] The activity of candidate compounds may be also confirmed using polarized monolayers grown on filters. Once confluent, HT29 cells are very difficult to transduce with adenoviral constructs. Fewer than 1 in 100 cells express adenoviral transgenes at multiplicity of infection (MOI) of approximately 50. A replication deficient adenovirus encoding firefly luciferase or the EGFP at an MOI of 50 for each well of cells in low serum medium is applied for 4 hours at 37° C. Confluent HeLa cells are used as a positive control. A set of cells is incubated with virus but no gene transfer activating compound as a negative control. Test drugs are incubated along with the virus. Forty-eight hours later, the cells are assayed for luciferase by standard techniques. Luciferase is assayed using a commercially available kit (Promega) which allows quantitative measurements of adenoviral gene transfer.
(§1) FIGS. 2A and 2B show a comparison of luciferase expression (y-axis, light units) vs. MOI (x-axis) in HeLa and HT29 cells infected with adenovirus under various conditions. For these studies, cells are grown in 96-well plates. The HT29 cells are seeded at near confluency, about 300,000 cells per well, and infected with adenovirus 3-4 days later. The cells are infected with luciferase-expressing, replication-deficient adenovirus at MOIs of 1, 3 or 10 by applying the virus to wells of cells in low serum medium for 4 hours at 37° C. In addition, the cells are incubated with gene transfer activating compound 675865 at a concentration of 30 nM, 300 nM, 10 uM, 30 uM or 100 uM along with the virus. A control set of cells is incubated with virus at MOIs of 1, 3 or 10, but no gene transfer activating compound is included. Forty-eight hours later, the cells are assayed for luciferase activity by standard techniques. […] FIGS. 3A and 3B present data from these experiments in which luciferase expression (y-axis, light units) is plotted vs. compound 675865 concentration (x-axis).
as §1, with “6A” for “2A”, “6B” for “2B”, “143491” for “675865”, “7A” for “3A”, “7B” for “3B”
(§2) Luciferase activity is measured using a commercially available assay kit (Bright-Glo™, Promega) designed for high throughput screening. Briefly, the Bright-Glo™ substrate is dissolved in Bright-Glo™ assay buffer at room temperature. 50 μl of the premixed Bright-Glo™ reagent is directly added to each well of the assay plate. Luminescence is measured in a microluminometer (Harta Instrument, Gaithersburg, Md.).

HeLa and HT29 cells = test: Adeno-associated virus luciferase gene transfer into HeLa and HT29 cells; conditions: MOI 2.78, 8.33 or 22, compound 30 nM to 100 uM, 48 hours
Description: FIGS. 8A and 8B show a comparison of luciferase expression (y-axis, light units) vs. MOI (x-axis) in HeLa and HT29 cells infected with adeno-associated virus under various conditions. For these studies, cells are grown as described in Example 8. The HT29 cells are seeded at near confluency, about 300,000 cells per well, and infected with adenovirus 3-4 days later. The cells are infected with luciferase-expressing, adeno-associated virus at MOIs of 2.78, 8.33 or 22 by applying the virus to wells of cells in low serum medium for 4 hours at 37° C. In addition, the cells are incubated with gene transfer activating compound 143491 at a concentration of 30 nM, 300 nM, 10 uM, 30 uM or 100 uM along with the virus. A control set of cells is incubated with virus at MOIs of 2.78, 8.33 or 22, but no gene transfer activating compound is included. Forty-eight hours later, the cells are assayed for luciferase activity by standard techniques. Luciferase activity is enhanced in cells treated with compound 143491 compared with controls. […]
(§3) Luciferase activity is measured using a commercially available assay kit (Bright-Glo™, Promega) designed for high throughput screening. […] Luminescence is measured in a microluminometer (Harta Instrument, Gaithersburg, Md.).

HT29 cells [2] = test: Adenovirus EGFP gene transfer, fluorescence microscopy; conditions: 100 micromolar compound, adenovirus EGFP MOI 0.1-10, 4 hours
Description: HT29 or HeLa cells are grown in 96-well plates. The HT29 cells are seeded at near confluency, about 300,000 cells per well, and infected with adenovirus 3-4 days later. Confluent HeLa cells are used as a positive control. […] A replication deficient adenovirus encoding the EGFP gene is applied at an MOI of 0.1-10 to wells of cells in low serum medium for 4 hours at 37° C. Gene transfer activating compounds are incubated along with the virus at concentrations of 100 micromolar. Cells are visualized with a fluorescent microscope where green fluorescence indicates EGFP expression. A set of cells is incubated with virus but no gene transfer activating compound.

Calu3 cells = test: Adenovirus luciferase gene transfer into Calu3 cells grown on filters or plastic; conditions: 40 μm compound; 10 MOI (FIG. 4A)
Description: Lung epithelial cells which form tight junctions in vitro, Calu3, are grown on filters (Corning Costar Transwell®—polyester—pore size 0.4 μm) or plastic well allowing apical and basolateral specialization to occur.
Calu3 cells grown as described in Example 9 are incubated with adenovirus at 10 MOI and various compounds at a concentration of 40 micromolar. FIG. 4B indicates luciferase activity measured under these conditions.
Calu3 cells grown as described in Example 9 are incubated with luciferase-expressing adenovirus and various gene transfer activating compounds.
as §2

HT29 cells [3] = test: Lentivirus luciferase gene transfer into HT29 cells; conditions: MOI 0.002, 0.02 or 0.2, compound 30 nM to 100 uM, 48 hours
Description: FIG. 5A show a comparison of luciferase expression (y-axis, light units) vs. MOI (x-axis) in HT29 cells infected with lentivirus under various conditions. For these studies, cells are grown in 96-well plates as described in Example 8. The HT29 cells are seeded at near confluency, about 300,000 cells per well, and infected with a lentivirus vector expressing luciferase 3-4 days later. The cells are infected with lentivirus at MOIs of 0.002, 0.02 or 0.2 by applying the virus to wells of cells in low serum medium for 4 hours at 37° C. In addition, the cells are incubated with gene transfer activating compound 675865 at a concentration of 30 nM, 300 nM, 10 uM, 30 uM or 100 uM along with the virus. A control set of cells is incubated with virus at MOIs of 0.002, 0.02 or 0.2 but no gene transfer activating compound is included. Forty-eight hours later, the cells are assayed for luciferase activity by standard techniques.
FIG. 5B present data from these experiments in which luciferase expression (y-axis, light units) is plotted vs. compound 675865 concentration (x-axis).
as §3, with “screening. Briefly, the Bright-Glo™ substrate is dissolved in Bright-Glo™ assay buffer at room temperature.” for “screening.”

Row | Compound | activation of adenovirus gene transfer (luciferase) (HT29 cells [1]) | also measured
1 | COc1cccc2c1C(=O)c1c(O)c3c(c(O)c1C2=O)CC(O)(/C(C)=N/O)CC3OC1CC(N)C(O)C(C)O1 (stereo not shown) [NSC 143491] | activation of adenovirus gene transfer | activation of adenovirus gene transfer (luciferase activity) (HT29 cells [1]): activation of adenovirus gene transfer; luciferase activity compared with controls, adeno-associated virus vector (HeLa and HT29 cells): enhanced
2 | O=C(CC(=O)c1cc(Cl)ccc1O)c1cccnc1 [NSC 73609] | activation of adenovirus gene transfer | –
3 | CN(C)CCCN=c1c2ccccc2n(C)c2[nH]c(=O)n(C)c(=O)c12 [NSC 373989] | activation of adenovirus gene transfer | –
4 | COc1ccc(CC2C(=O)NC(C)C(=O)N(C)C3C(=O)N(C)C(Cc4ccc(O)c(c4)Oc4ccc(cc4)C3O)C(=O)NC(C)C(=O)NC(C)C(=O)N2C)cc1 (stereo not shown) [NSC 259968] | activation of adenovirus gene transfer | –
5 | O=C(O)c1ccccc1N=Cc1ccc(N(CCCl)CCCl)cc1 [NSC 101492] | activation of adenovirus gene transfer | –
6 | CC1=C(C)C(C#N)(C(=O)CBr)C(=N)O1 (stereo not shown) [NSC 128720] | activation of adenovirus gene transfer | –
7 | Nc1ncnc2c(C3OC(CO)C(O)C3O)nsc12 (stereo not shown) [NSC 675865] | activation of adenovirus gene transfer | activation of adenovirus gene transfer (luciferase activity) (HT29 cells [1]): activation of adenovirus gene transfer; activation of adenovirus gene transfer (EGFP green fluorescence) (HT29 cells [2]): activation of adenovirus gene transfer; luciferase activity in Calu3 cells infected with luciferase expressing adenovirus (Calu3 cells): increased luciferase activity; luciferase activity, lentivirus vector (HT29 cells [3]): enhancement of luciferase activity
8 | CN(C)C(=O)CCCc1ccc(N(CCCl)CCCl)cc1 [NSC 108613] | activation of adenovirus gene transfer | –
9 | CN(C)CCCNc1c2ccccc2nc2ccc(F)cc12.Cl [NSC 109325] | activation of adenovirus gene transfer | –
10 | CCCCCCCCCCCCCC[As](=O)(O)O [NSC 106191] | activation of adenovirus gene transfer | –
